Results published in paper PMC9032385, “A2A Adenosine Receptor Antagonists: Are Triazolotriazine and Purine Scaffolds Interchangeable?” (Molecules, 2022).

Legend:
[1] = biological target: T1, A2BAR (Homo sapiens, UniProt P29275); conditions: reference compound ANR 94, reference printed at end of table row; cited from earlier work
T1 construct: expressed in transfected cells
T1 sequence (P29275 1-332): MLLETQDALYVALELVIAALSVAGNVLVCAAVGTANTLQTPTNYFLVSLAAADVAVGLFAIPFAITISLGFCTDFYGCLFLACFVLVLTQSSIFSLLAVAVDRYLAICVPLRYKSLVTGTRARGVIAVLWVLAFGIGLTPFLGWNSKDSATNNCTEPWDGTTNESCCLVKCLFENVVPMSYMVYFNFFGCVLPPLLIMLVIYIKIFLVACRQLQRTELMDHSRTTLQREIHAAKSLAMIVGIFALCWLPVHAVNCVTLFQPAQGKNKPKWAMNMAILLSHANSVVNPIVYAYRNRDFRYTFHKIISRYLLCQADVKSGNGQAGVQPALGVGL

[2] = tested on: murine model of PD; parameters: method as in PMID 19951715; conditions: cited from earlier work
[3] = tested on: neuronal injury model induced by 6-hydroxydopamine; parameters: method as in PMID 35184706; conditions: cited from earlier work
[4] = biological target: T2, human recombinant A1AR (Homo sapiens, UniProt P30542); conditions: reference compound ANR 94, reference printed at end of table row; cited from earlier work
T2 construct: expressed in transfected cells; membrane preparation
T2 sequence (P30542 1-326): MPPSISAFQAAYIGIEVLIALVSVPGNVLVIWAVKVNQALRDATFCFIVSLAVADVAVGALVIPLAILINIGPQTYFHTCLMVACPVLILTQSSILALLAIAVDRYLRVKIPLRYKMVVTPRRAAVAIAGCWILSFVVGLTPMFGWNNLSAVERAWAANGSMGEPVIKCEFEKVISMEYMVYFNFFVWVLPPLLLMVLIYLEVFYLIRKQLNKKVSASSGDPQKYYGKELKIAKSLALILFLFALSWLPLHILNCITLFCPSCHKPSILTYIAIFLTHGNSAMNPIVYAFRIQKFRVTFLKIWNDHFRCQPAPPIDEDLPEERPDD

[5] = biological target: T3, human recombinant A2AAR (Homo sapiens, UniProt P29274); assay: Radioligand binding at human A2AAR ([3H]NECA displacement, CHO cell membranes); conditions: ratio of Ki values
T3 construct: expressed in transfected cells; membrane preparation
Protocol: Most of the compounds were also evaluated at A2BARs in a functional study using the GloSensor cAMP assay. […] In the case of A2BARs, Ki-values were calculated from IC50-values determined by the inhibition of NECA-stimulated adenylyl cyclase activity.
Preparation of membranes: Cell membranes for binding assays were prepared mechanically detaching the cells from the petri and suspending them in a cold hypotonic buffer (5 mM Tris/HCl, 2 mM EDTA, pH 7.4). The cell suspension was homogenized (Ultra-Turrax, 2 × 15 s at maximum speed) and the homogenate centrifuged for 10 min (4 °C) to 1000× g. […] The amount of the protein suspension was determined according to the […] using the BCA Protein Assay Kit (Pierce), frozen in liquid nitrogen, and stored at −80 °C.
Binding assays: The dissociation constants of the radioligand (KD) were calculated through saturation assays, while the dissociation constants of the compounds under study (Ki) were determined by competition experiments. All binding data were calculated by nonlinear regression curves using the software GraphPad Prism 5 (GraphPad Software, San Diego, CA, USA). The increasing concentrations of the radioligand saturation binding ([^3H]-CCPA for the A1 receptor subtype, [^3H]-NECA for the A2A receptor subtype, and [^3H]-HEMADO for the A3 receptor) subtype were incubated in a total volume of 250 μL containing 0.2 U/mL of Ado deaminase (ADA) and 12 micrograms of membrane proteins in the specific buffer. In competition experiments for the A1 receptor subtype, each compound was added at increasing concentrations, to the well containing 1 nM of [^3H]-CCPA, to a final volume of 200 μL. The samples were left to incubate for 3 h at room temperature, filtered in a filter 96-well plate (UniFilter GF/C, Perkin-Elmer Life and Analytical Science, Boston, MA) using the FilterMate Cell Harvester (Perkin-Elmer), and washed 3 times with cold distilled water. After drying the filter plate at 40 °C for 30′, they 20 μL of scintillating liquid (Microscint-20, Perkin-Elmer) was added to each well, and then the radioactivity was quantized with the MicroBeta2 Plate Counter (Perkin-Elmer). The conditions for binding experiments at A2A and A3 receptor subtypes were essentially the same as for the A1AR using [^3H]-NECA (N-ethylcarboxyamideAdo) at a concentration of 10 nM and [^3H]-HEMADO (2-(1-hexyne)-N^6-methylAdo) at a concentration of 1 nM as radioligands, respectively. The samples were incubated with 12 micrograms of protein for 3 h at room temperature and filtered as described above.
The non-specific binding was determined in the presence of 1 mM theophylline for the A1AR, or 100 µM R-PIA (N^6-(1-methyl-2-phenylethyl)Ado) for the A2A and A3 receptors.

[6] = tested on: rats sensitized to L-DOPA; parameters: method as in PMID 35184706; conditions: cited from earlier work
[7] = tested on: catalepsy induced by haloperidol; parameters: method as in PMID 35184706; conditions: in vivo model of Parkinson's disease; cited from earlier work
[8] = biological target: T4, human recombinant A3AR (Homo sapiens, UniProt P0DMS8); conditions: reference compound ANR 94; cited from earlier work
T4 construct: expressed in transfected cells; membrane preparation
T4 sequence (P0DMS8 1-318): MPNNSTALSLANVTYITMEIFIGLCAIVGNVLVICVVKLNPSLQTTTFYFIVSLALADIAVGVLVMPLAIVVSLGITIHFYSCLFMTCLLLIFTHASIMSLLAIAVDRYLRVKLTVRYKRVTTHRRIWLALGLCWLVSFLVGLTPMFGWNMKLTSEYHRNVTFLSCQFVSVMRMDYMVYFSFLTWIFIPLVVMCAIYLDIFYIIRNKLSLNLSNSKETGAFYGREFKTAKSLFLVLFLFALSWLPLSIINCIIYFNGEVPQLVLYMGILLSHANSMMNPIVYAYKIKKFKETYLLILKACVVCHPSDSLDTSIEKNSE

[9] = tested on: BV-2 murine microglial cells; assay: RT-PCR expression of inflammatory mediators in LPS-activated BV-2 cells; format: cell-based; conditions: 10 nM for 24 h, then 100 ng/mL LPS 24 h
Protocol: BV-2 cells were treated with 13 or ANR 94 (10 nM) and activated with 100 ng/mL LPS for 24 h. Total RNA was isolated, and proinflammatory cytokine and enzyme expressions were measured using RT-PCR (Figure 5).
Cell Cultures and Treatments: BV-2 murine microglial cells (a gift from Prof. Elisabetta Blasi of the University of Modena and Reggio Emilia, Modena, Italy) were maintained at 37 °C and 5% CO2 in a humidified incubator and grown in DMEM supplemented with 10% (v/v) low-endotoxin fetal bovine serum (Euroclone—Milan, Italy), 2 mM L-glutamine, 50 U/mL penicillin, and 50 μg/mL streptomycin (Sigma-Aldrich–Merck, Milan, Italy). Cells were seeded at 50,000 cells/mL in 96-well tissue culture plates for the viability assay, in 6-well tissue culture plates for the Griess assay and RT-PCR assay. BV-2 cells were treated for 24 h with ANR 94 or 13 at different concentrations and then exposed to LPS (100 ng/mL; Sigma-Aldrich–Merck) for a further 24 h.
Real-Time Polymerase Chain Reaction (PCR): At the end of the experiments, total RNA was extracted by BV-2 cells using RNeasy Mini Kit (QIAGEN GmbH, Hilden, Germany). RNA concentraion and quality were measured on a NanoVue Spectrophotometer (GE Healthcare, Milano, Italy). iScript cDNA Synthesis Kit (Bio-Rad, Hercules, CA, USA) was used to synthesize cDNA starting from the extracted RNA, following the supplier’s instructions. PCR was performed by adding 2.5 μL (12.5 ng) of cDNA, 5 μL SsoAdvanced Universal SYBR Green Supermix (Bio-Rad), and 0.5 μL (500 nM) of each primer (Table 2) to a PCR tube. cDNA amplification was started at 95 °C for 30 s to activate the polymerase, followed by 40 cycles of 5 s at 95 °C and 30 s at 60 °C. Normalized expression levels were calculated relative to the control cells according to the 2^−ΔΔCT method.

[10] = tested on: tremor induced by tacrine; parameters: method as in PMID 35184706; conditions: cited from earlier work

T3 sequence (P29274 whole entry): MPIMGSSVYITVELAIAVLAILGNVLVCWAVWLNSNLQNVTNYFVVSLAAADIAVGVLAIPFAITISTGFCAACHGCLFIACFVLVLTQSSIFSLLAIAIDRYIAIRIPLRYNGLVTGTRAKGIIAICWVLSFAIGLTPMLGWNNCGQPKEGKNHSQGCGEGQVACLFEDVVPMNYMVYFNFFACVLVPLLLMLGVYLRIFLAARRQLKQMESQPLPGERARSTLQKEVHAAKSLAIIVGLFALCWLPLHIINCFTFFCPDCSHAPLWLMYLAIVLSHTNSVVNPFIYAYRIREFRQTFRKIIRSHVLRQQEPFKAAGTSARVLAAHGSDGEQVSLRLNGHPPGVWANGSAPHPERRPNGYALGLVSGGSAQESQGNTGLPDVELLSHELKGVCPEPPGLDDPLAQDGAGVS

## CCOc1nc2c(N)ncnc2n1CC [ANR 94, 9-ethyl-8-ethoxyadenine]
[1]
  Ki: > 30 µM
[2]
  microglia activation: ability to reduce microglia activation
[3]
  motor deficit: reducing the motor deficit
[4]
  Ki: 2400 nM
[5]
  selectivity A1/A2A: 52
  selectivity A2B/A2A: > 652
  selectivity A3/A2A: 457
[6]
  contralateral turning behavior: induced contralateral turning behavior
[7]
  effect on catalepsy induced by haloperidol: reversed the catalepsy induced by haloperidol
[8]
  Ki: 21 µM
[9]
  COX-2 mRNA expression vs LPS: only able to significantly reduce the expression of IL-1β
  IL-1β mRNA expression vs LPS: significantly reduce the expression of IL-1β
  IL-6 mRNA expression vs LPS: only able to significantly reduce the expression of IL-1β
  iNOS mRNA expression vs LPS: only able to significantly reduce the expression of IL-1β
[10]
  intensity of the tremor induced by tacrine: good efficacy in lowering the intensity of the tremor
